Patent US20250306018A1, “METHODS FOR CHARACTERIZING INTERACTIONS BETWEEN ANALYTES” (Nautilus Subsidiary, Inc., priority 2021, published 2025)

Tested on: serum proteins
Assay: Binding of fluorescently-labeled detectable probes to a single-analyte array of serum protein conjugates, confocal fluorescent microscopy
Design: species or system human
Details: patterned array of serum protein conjugates
From the text: A blood sample is collected from a human medical subject. A serum fraction containing serum proteins is purified from the blood sample via centrifugation of a whole blood sample obtained from the medical subject and collection of the resulting supernatant. The supernatant includes collected serum proteins as well as several impurities, including trace amounts of clotting factors, vitamins, cofactors, nucleic acids, triglycerides, cholesterols, electrolytes (e.g., Ca^2+, Mg^2+, Na^+, K^+, Fe^2+, etc.), trace amounts of non-human antigens (e.g, viral antigens), and trace amounts of the medical subject's prescribed pharmaceuticals. The fraction containing the extracted serum proteins is modified to incorporate a transcyclooctene (TCO) moiety at some of the amine-containing amino acid sidechain of the present proteins. Each modified serum protein is conjugated to a structured nucleic acid particle (SNAP) containing a methyltetrazine (mTz) attachment moiety via a TCO-mTz Click-type reaction to form a plurality of serum protein conjugates. Certain impurities are also conjugated to SNAPs due to cross-reactivity with functionalization reagents and/or methyltetrazine. […]
The patterned array of serum protein conjugates is characterized by cyclical binding of affinity reagents. […] Identities of serum proteins are determined for […] of addresses on the array to beyond a confidence level of 99.9%. […]

polypeptide species bound by the detectable probe (addresses with identified serum albumin excluded): fewer polypeptide species
binding affinity of the detectable probe for bound polypeptide species (judged by repeatability of observed binding): low degree of binding affinity
Substance: VEGF
